Results published in patent US7560464B2, “Polycyclic pyrimidines as potassium ion channel modulators” (Icagen, Inc., priority 2004, dated 2009).

Target: hSK2 (Homo sapiens, UniProt Q9H2S1)
Assay: Assay for compound activity towards hSK channels (86Rb+ efflux)
Format: cell-based
Settings: 86Rb+ efflux stimulated with calcium ionophore; drug 0.01 to 30 μM in EBSS; read-out: hSK2 Inhibitory Activity
Experimental: 20.1 Assay for Compound Activity Towards hSK Channels
Cells expressing small conductance, calcium activated potassium channels, such as SK-like channels were loaded with ^86Rb^+ by culture in media containing ^86RbCl. Following loading, the culture media was removed and the cells were washed in EBSS to remove residual traces of ^86Rb^+. Cells were preincubated with the drug (0.01 to 30 μM in EBSS) and then ^86Rb^+ efflux was stimulated by exposing cells to EBSS solution supplemented with a calcium ionophore, such as ionomycin, in the continued presence of the drug. After a suitable efflux period, the EBSS/ionophore solution was removed from the cells and the ^86Rb^+ content was determined by Cherenkov counting (Wallac Trilux). Cells were then lysed with a SDS solution and the ^86Rb^+ content of the lysate was determined. Percent ^86Rb^+ efflux was calculated according to the following equation: (^86Rb^+ content in EBSS/(^86Rb^+ content in EBSS+^86Rb^+ content of the lysate))×100 20.2 Results

| Compound | IC50 [nM] |
| --- | --- |
| Clc1cc(-c2ccccn2)nc(-c2ccccn2)n1 [4-Chloro-2,6-di-pyridin-2-yl-pyrimidine] | 1000 to 5000 |
| FC(F)(F)c1ccc(Nc2cc(-c3ccccn3)nc(-c3ccccn3)n2)nc1 [(2,6-Di-pyridin-2-yl-pyrimidin-4-yl)-(5-trifluoromethyl-pyridin-2-yl)-amine] | 5000 to 30000 |
| c1ccc(Nc2cc(-c3ccccn3)nc(-c3ccccn3)n2)nc1 [(2,6-Di-pyridin-2-yl-pyrimidin-4-yl)-pyridin-2-yl-amine] | 5000 to 30000 |
| FC(F)(F)c1ccc(Nc2nccc(-c3ccccn3)n2)nc1 [(4-Pyridin-2-yl-pyrimidin-2-yl)-(5-trifluoromethyl-pyridin-2-yl)-amine] | 5000 to 30000 |
| COc1cnc(-c2ccccn2)nc1Nc1ccc(Br)cn1 [(5-Bromo-pyridin-2-yl)-(5-methoxy-2-pyridin-2-yl-pyrimidin-4-yl)-amine] | 5000 to 30000 |
| Cc1nc(-c2ccccn2)nc(Nc2ccc(C(F)(F)F)cn2)c1Cl [(5-Chloro-6-methyl-2-pyridin-2-yl-pyrimidin-4-yl)-(5-trifluoromethyl-pyridin-2-yl)-amine] | 5000 to 30000 |
| Clc1ccc(Nc2ccnc(-c3ccccn3)n2)nc1 [(5-Chloro-pyridin-2-yl)-(2-pyridin-2-yl-pyrimidin-4-yl)-amine] | 1000 to 5000 |
| COc1cnc(-c2ccccn2)nc1Nc1ccc([N+](=O)[O-])cn1 [(5-Methoxy-2-pyridin-2-yl-pyrimidin-4-yl)-(5-nitro-pyridin-2-yl)-amine] | 5000 to 30000 |
| COc1cnc(-c2ccccn2)nc1Nc1ccc(C(F)(F)F)cn1 [(5-Methoxy-2-pyridin-2-yl-pyrimidin-4-yl)-(5-trifluoromethyl-pyridin-2-yl)-amine] | 5000 to 30000 |
| Cc1cc(Nc2ccccn2)nc(-c2ccccn2)n1 [(6-methyl-2-pyridin-2-yl-pyrimidin-4-yl)-pyridin-2-yl-amine] | 5000 to 30000 |
| CN(c1ccccn1)c1nccc(-c2ccccn2)n1 [Methyl-pyridin-2-yl-(4-pyridin-2-yl-pyrimidin-2-yl)-amine] | 5000 to 30000 |
| COc1cnc(-c2ccccn2)nc1NNc1ccccn1 [N-(5-Methoxy-2-pyridin-2-yl-pyrimidin-4-yl)-N′-pyridin-2-yl-hydrazine] | 5000 to 30000 |
| c1ccc(Nc2nc(-c3ccccn3)nc3ccccc23)nc1 [Pyridin-2-yl-(2-pyridin-2-yl-quinazolin-4-yl)-amine] | 100 to 1000 |
| c1ccc(Nc2nc(-c3ccccn3)c3ccccc3n2)nc1 [Pyridin-2-yl-(4-pyridin-2-yl-quinazolin-2-yl)-amine] | 5000 to 30000 |
| Cc1cccc(-c2nccc(Nc3ccccn3)n2)n1 [[2-(6-methyl-pyridin-2-yl)-pyrimidin-4-yl]-pyridin-2-yl-amine] | 1000 to 5000 |
| Cc1cccc(-c2ccnc(Nc3ccccn3)n2)n1 [[4-(6-methyl-pyridin-2-yl)-pyrimidin-2-yl]-pyridin-2-yl-amine] | 1000 to 5000 |
| COc1cnc(-c2ccccn2)nc1Nc1ccc(-c2cccc(F)c2)cn1 [[5-(3-Fluoro-phenyl)-pyridin-2-yl]-(5-methoxy-2-pyridin-2-yl-pyrimidin-4-yl)-amine] | 100 to 1000 |

Other lines, results leading:

| IC50 [nM] | Compound |
| --- | --- |
| < 100 | COc1cnc(-c2ccccn2)nc1Nc1ccc(N2CCCC2=O)cn1 [1-[6-(5-Methoxy-2-pyridin-2-yl-pyrimidin-4-ylamino)-pyridin-3-yl]-pyrrolidin-2-one] |
| < 100 | Cc1ccnc(Nc2nccc(-c3ccccn3)n2)c1 [(4-Methyl-pyridin-2-yl)-(4-pyridin-2-yl-pyrimidin-2-yl)-amine] |
| 100 to 1000 | Clc1ccc(Nc2nccc(-c3ccccn3)n2)nc1 [(5-Chloro-pyridin-2-yl)-(4-pyridin-2-yl-pyrimidin-2-yl)-amine] |
| 100 to 1000 | COc1cnc(-c2ccccn2)nc1Nc1ccc(Cl)cn1 [(5-Chloro-pyridin-2-yl)-(5-methoxy-2-pyridin-2-yl-pyrimidin-4-yl)-amine] |
| 100 to 1000 | COc1cnc(-c2ccccn2)nc1Nc1ccc(F)cn1 [(5-Fluoro-pyridin-2-yl)-(5-methoxy-2-pyridin-2-yl-pyrimidin-4-yl)-amine] |
| < 100 | COc1cnc(-c2ccccn2)nc1Nc1ccc(N2CCC(C)CC2)cn1 [(5-Methoxy-2-pyridin-2-yl-pyrimidin-4-yl)-(4-methyl-3,4,5,6-tetrahydro-2H-[1,3′]bipyridinyl-6′-yl)-amine] |
| < 100 | COc1cnc(-c2ccccn2)nc1Nc1cc(C)ccn1 [(5-Methoxy-2-pyridin-2-yl-pyrimidin-4-yl)-(4-methyl-pyridin-2-yl)-amine] |
| 100 to 1000 | COc1cnc(-c2ccccn2)nc1Nc1ccc(-c2ccccc2)cn1 [(5-Methoxy-2-pyridin-2-yl-pyrimidin-4-yl)-(5-phenyl-pyridin-2-yl)-amine] |
| < 100 | COc1cnc(-c2ccccn2)nc1Nc1ccc(N2CCCC2)cn1 [(5-Methoxy-2-pyridin-2-yl-pyrimidin-4-yl)-(5-pyrrolidin-1-yl-pyridin-2-yl)-amine] |
| < 100 | COc1cnc(-c2ccccn2)nc1Nc1ccc(-c2cccs2)cn1 [(5-Methoxy-2-pyridin-2-yl-pyrimidin-4-yl)-(5-thiophen-2-yl-pyridin-2-yl)-amine] |
| < 100 | COc1cnc(-c2ccccn2)nc1Nc1ccc(-c2ccsc2)cn1 [(5-Methoxy-2-pyridin-2-yl-pyrimidin-4-yl)-(5-thiophen-3-yl-pyridin-2-yl)-amine] |
| 100 to 1000 | COc1cnc(-c2ccccn2)nc1Nc1ccc(N2CCN(C)CC2)cn1 [(5-Methoxy-2-pyridin-2-yl-pyrimidin-4-yl)-[5-(4-methyl-piperazin-1-yl)-pyridin-2-yl]-amine] |
| 100 to 1000 | COc1cnc(-c2ccccn2)nc1Nc1ccc(-c2ccc(C)o2)cn1 [(5-Methoxy-2-pyridin-2-yl-pyrimidin-4-yl)-[5-(5-methyl-furan-2-yl)-pyridin-2-yl]-amine] |
| 100 to 1000 | COc1cnc(-c2ccccn2)nc1Nc1ccccn1 [(5-Methoxy-2-pyridin-2-yl-pyrimidin-4-yl)-pyridin-2-yl-amine] |
| < 100 | COc1ccc(Nc2nc(-c3ccccn3)ncc2OC)nc1 [(5-Methoxy-pyridin-2-yl)-(5-methoxy-2-pyridin-2-yl-pyrimidin-4-yl)-amine] |
| 100 to 1000 | c1ccc(-c2ccc(Nc3nccc(-c4ccccn4)n3)nc2)cc1 [(5-Phenyl-pyridin-2-yl)-(4-pyridin-2-yl-pyrimidin-2-yl)-amine] |
| 100 to 1000 | COc1cnc(-c2ccccn2)nc1Nc1ccc(N(C)C)cn1 [N^2-(5-Methoxy-2-pyridin-2-yl-pyrimidin-4-yl)-N5,N5-dimethyl-pyridine-2,5-diamine] |
| < 100 | COc1cnc(-c2ccccn2)nc1Nc1ccc(N)cn1 [N^2-(5-Methoxy-2-pyridin-2-yl-pyrimidin-4-yl)-pyridine-2,5-diamine] |
| < 100 | c1ccc(Nc2nccc(-c3ccccn3)n2)nc1 [Pyridin-2-yl-(4-pyridin-2-yl-pyrimidin-2-yl)-amine] |

Target: SK2 subtype channels (Rattus norvegicus, UniProt P70604)
Assay: not given
Settings: patch clamp; cited from earlier work

| Compound | block of SK2 channel currents |
| --- | --- |
| CN(C)CCC=C1c2ccccc2CCc2ccccc21 [amitriptyline] | block SK2 channel currents with micromolar affinity |
| NC(=O)N1c2ccccc2C=Cc2ccccc21 [carbamazepine] | block SK2 channel currents with micromolar affinity |
| Nc1c2c(nc3ccccc13)CCCC2 [tacrine] | block SK2 channel currents with micromolar affinity |

Target: T1, recombinant human SK4 (hIK1 or hKCa4) channels (Homo sapiens, UniProt O15554+P0DP23)
T1 construct: host or cells: HEK 293
Assay: not given
Settings: applied to the inside of SK4 channel-expressing membrane patches; cited from earlier work

| Compound | activation of SK4 channels |
| --- | --- |
| Barium | activated SK4 channels in a concentration-dependent manner |
| cadmium | activated SK4 channels in a concentration-dependent manner |
| calcium | activated SK4 channels in a concentration-dependent manner |
| cobalt | did not activate |
| iron | did not activate |
| lead | activated SK4 channels in a concentration-dependent manner |
| magnesium | did not activate |
| strontium | activated SK4 channels in a concentration-dependent manner |
| zinc | did not activate |
